Legend:
Assay type in all cases: cell-based
[1] = tested on: LXF-289; assay: Lung cancer cell line panel screened for sensitivity to BPTES, 72 hr proliferation assay
[2] = tested on: NCI-H1703; assay: as above
[3] = tested on: A549; assay: as above
Excerpt: (§1) Of these, 44 of the cell lines have been classified as non-small cell lung cancer (NSCLC). […] Four of the top 25 transcriptional/cellular pathways were related to the epithelial-mesenchymal transition (EMT) (ranks 1, 15, 23, 25 of FIG. 2). […] Low E-cadherin/high vimentin are well-defined markers of cells that have a mesenchymal phenotype as characterized for example, in any one of the following references: (Yauch et al., (2005) Cin Cancer Res 11:24; Savagner et al., (2010) Ann Oncol. 21(suppl 7): vii89; Thiery et al., (2002) Nature Reviews Cancer June vol 2:442).

[4] = tested on: CALU-6; assay: as above; settings: CALU-6 cell line
Excerpt: as §1

[5] = tested on: HCC15; assay: as above
Excerpt: as §1

[6] = tested on: NCI-H1299; assay: as above
Excerpt: as §1

[7] = tested on: NCI-H1437; assay: as above
Excerpt: as §1

[8] = tested on: NCI-H1581; assay: as above
Excerpt: as §1

[9] = tested on: NCI-H1650; assay: as above
Excerpt: as §1

[10] = tested on: NCI-H446; assay: as above
Excerpt: as §1

[11] = tested on: NCI-H661; assay: as above
Excerpt: as §1

[12] = tested on: SW-1573; assay: as above
Excerpt: as §1

[13] = tested on: MDA-MB-231 cells; assay: 13C(5)-Gln labeling of glutamate and aspartate, LC/MS; settings: 1 hr drug pre-treatment, 2 hr 13C(5)-Gln labeling
Method: MDA-MB-231 cell lines stably expressing empty vector control (Con), wild-type GAC (GAC), or a BPTES-resistant GAC enzyme (GAC-BR) were treated with indicated concentrations of drugs in a 72 hr proliferation assay. […] Calculated p-values from student t-test, * (3×10^−5), **(7×10^−10), ^#(3×10^−5), ^##(5×10^−7).
Several groups have shown that GLS inhibition leads to a decrease in cellular tricarboxylic acid cycle (TCA) intermediates downstream of GLS activity (P. Gao et al. Nature 458, 762 (2009); T. Cheng et al. Proceedings of the National Academy of Sciences 108, 8674 (2011)). Measurement of glutamate (the product of the glutaminase reaction) and aspartate (which derives both carbon and nitrogen from glutamate) are particularly sensitive readouts of glutaminase activity (FIG. 13). ^13C labeled carbon in cells pre-treated with drug was tracked for 1 hr, followed by a 2 hr ^13C(5)-Gln labeling period, via LC/MS.

O=C(Cc1ccccc1)Nc1nnc(CCSCCc2nnc(NC(=O)Cc3ccccc3)s2)s1 [BPTES] was tested, and the “Max Inh @ 10 uM (%)” value ([1]; LXF-289, 10 uM) was 91%, the “Mu/max @10 uM” value ([1]; LXF-289, 10 uM) was −0.25 and the “μ/μmax @10 uM” value ([1]; LXF-289, 10 uM) was −0.25. For the same molecule, the μ/μmax ([1]; LXF-289 cell line) was −0.25, the “Max Inh @ 10 uM (%)” value ([2]; NCI-H1703, 10 uM) was 87% and the “Mu/max @10 uM” value ([2]; NCI-H1703, 10 uM) was 0.30. For the same molecule, the “μ/μmax @10 uM” value ([2]; NCI-H1703, 10 uM) was 0.30, the μ/μmax ([2]; NCI-H1703 cell line) was 0.30 and the “Max Inh @ 10 uM (%)” value ([3]; A549, 10 uM) was 73%. For the same molecule, the “Mu/max @10 uM” value ([3]; A549, 10 uM) was 0.53, the “μ/μmax @10 uM” value ([3]; A549, 10 uM) was 0.53 and the μ/μmax ([3]; A549 cell line) was 0.53. For the same molecule, the μ/μmax [4] was 0.82, the “Max Inh @ 10 uM (%)” value ([5]; HCC15, 10 uM) was 40% and the “Mu/max @10 uM” value ([5]; HCC15, 10 uM) was 0.64. For the same molecule, the “μ/μmax @10 uM” value ([5]; HCC15, 10 uM) was 0.64, the μ/μmax ([5]; HCC15 cell line) was 0.64 and the μ/μmax [6] was 0.49. For the same molecule, the “Max Inh @ 10 uM (%)” value ([7]; NCI-H1437, 10 uM) was 27%, the “Mu/max @10 uM” value ([7]; NCI-H1437, 10 uM) was 0.81 and the “μ/μmax @10 uM” value ([7]; NCI-H1437, 10 uM) was 0.81. For the same molecule, the μ/μmax ([7]; NCI-H1437 cell line) was 0.81, the μ/μmax [8] was 0.51 and the μ/μmax [9] was 0.26. The μ/μmax [10] was 0.84, the “Max Inh @ 10 uM (%)” value ([11]; NCI-H661, 10 uM) was 73% and the “Mu/max @10 uM” value ([11]; NCI-H661, 10 uM) was 0.43. The “μ/μmax @10 uM” value ([11]; NCI-H661, 10 uM) was 0.43, the μ/μmax ([11]; NCI-H661 cell line) was 0.43 and the “Max Inh @ 10 uM (%)” value ([12]; SW-1573, 10 uM) was 68%. For the same molecule, the “Mu/max @10 uM” value ([12]; SW-1573, 10 uM) was 0.12, the “μ/μmax @10 uM” value ([12]; SW-1573, 10 uM) was 0.12 and the μ/μmax ([12]; SW-1573 cell line) was 0.12. For the same molecule, the “13C label accumulation in glutamate and aspartate” value [13] was “decreased label accumulation”.
